Drawing on ChEMBL document CHEMBL3217646, “Inhibitors of bacterial tubulin target bacterial membranes in vivo” (Medchemcomm, 2013), this text covers Activity, MIC and Ratio for eight compounds.

The structures appear in SMILES notation. In brackets after ≈: the same amount, converted by molar mass. Activity calls are given as the source filed them. The calls are words filed in the database; no cut-off is given here.

In assay [1] the test system is Bacillus subtilis. Description: Induction of membrane associated proteins mislocalization in Bacillus subtilis subsp. subtilis str. 168 assessed as reduction in GFP-MinD protein localization by fluorescence assay. Format: functional, organism-based.
For assay [2], the system named is Bacillus subtilis. Description: Protonophore activity in Bacillus subtilis subsp. subtilis str. 168 assessed as induction of rapid equlibration of delta-pH at 1 times MIC. Type of assay: functional, organism-based.
Assay [3] concerns Bacillus subtilis. As to the kind of experiment: Antimicrobial activity against Bacillus subtilis subsp. subtilis str. 168 after 18 hrs by macro-dilution method. As to conditions: subsp. subtilis str. 168, 18 h. Format: functional.
Assay [4] has as its system C2C12. Description: Induction of membrane disruption in mouse C2C12 cells assessed as change in oxygen consumption rate. Format: functional, cell-based.
Assay [5] has as its system Bacillus subtilis. Description: Induction of transmembrane potential loss in Bacillus subtilis subsp. subtilis str. 168 at 1 times MIC pre-treated for 5 mins and measured 15 mins post dye addition by DiOC2 dye based flow cytometry. Type of assay: functional, organism-based. On the technique in general: In flow cytometry, cells or beads pass a laser one at a time.
The test system of assay [6] is Bacillus subtilis. As to the kind of experiment: Increase in bacterial membrane permeability in Bacillus subtilis subsp. subtilis str. 168 at 1 times MIC pre-treated for 5 mins and measured 30 mins post dye addition by propidium iodide dye based flow cytometry. Format: functional, organism-based.
The test system of assay [7] is Bacillus subtilis. As to the kind of experiment: Protonophore activity in Bacillus subtilis subsp. subtilis str. 168 assessed as induction of rapid equlibration of delta-pH at 30 uM. Format: functional, organism-based.
Assay [8] concerns C2C12. Description: Induction of membrane disruption in mouse C2C12 cells assessed as maximum increase in oxygen consumption rate at 30 uM. Format: functional, cell-based.
In assay [9] the test system is Bacillus subtilis. Description: Induction of transmembrane potential loss in Bacillus subtilis subsp. subtilis str. 168 assessed as lambda575/lambda530 fluorescence emission intensity ratio at 1 times MIC pre-treated for 5 mins and measured 15 mins post dye addition by DiOC2 dye based flow cytometry. Format: functional.
Assay [10] relates to C2C12. As to the kind of experiment: Induction of membrane disruption in mouse C2C12 cells assessed as increase in oxygen consumption rate at 0.1 to 1.2 uM. Format: functional, cell-based.
The test system of assay [11] is C2C12. Description: Induction of membrane disruption in mouse C2C12 cells assessed as maximum increase in oxygen consumption rate at 0.6 uM. Format: functional, cell-based.
In assay [12] the test system is Bacillus subtilis. As to the kind of experiment: Induction of transmembrane potential loss in Bacillus subtilis subsp. subtilis str. 168 assessed as lambda575/lambda530 fluorescence emission intensity ratio at 1 times MIC pre-treated for 20 mins and measured 15 mins post dye addition by DiOC2 dye based flow cytometry (reference value: 0.257 +/- 0.003 no unit). Type of assay: functional.

In general, MIC refers to the lowest concentration that inhibits growth of the organism.

In the case of `CC(C)c1c(O)ccc2c1CC[C@H]1C(C)(C)CCC[C@]21C` [TOTAROL], the result in assay [1], in assay [5] and in [6] was Active. For the same compound, the result in assay [2] and in assay [4] was inactive. For the same compound, the MIC in assay [3] is 2.5 µM (≈ 0.716 µg/mL).

Turning to `NC(=O)c1c(F)ccc(OCc2nc3cc(Cl)cnc3s2)c1F`, the outcome in [1], in [5] and in assay [6] was inactive. Moreover, in assay [3], it took 2.5 µM (≈ 0.889 µg/mL) to inhibit growth (MIC).

For the compound `C[n+]1cc2c3c(ccc2c2ccc4cc5c(cc4c21)OCO5)OCO3` [SANGUINARIUM], in assay [2], the outcome was inactive. In assay [3], it took 10 µM to inhibit growth (MIC). In addition, the outcome in [5] and in assay [6] was Active.

As for `Oc1ccc(Cl)cc1Cc1cc(Cl)cc(Cc2cc(Cl)ccc2O)c1O`, the result in assay [7], in [1], in assay [8] and in [5] was Active. Besides, the result in [2] and in [6] was inactive. The same compound yielded an MIC in assay [3] of 0.16 µM (≈ 0.0656 µg/mL).

As to `O=C/C=C/c1ccccc1` [CINNAMALDEHYDE], the result in assay [1], in [5] and in assay [6] was Active. Besides, the result in assay [2] was inactive. Further, the MIC in [3] turned out to be 2500 µM (≈ 330 µg/mL).

With `N#CC(C#N)=NNc1cccc(Cl)c1` [CARBONYL CYANIDE M-CHLOROPHENYLHYDRAZONE], the Ratio in assay [9] came out at 0.045. Besides, the outcome in assay [10], in assay [1], in assay [2] and in assay [11] was Active. Besides, the lowest concentration to inhibit growth in assay [3] (MIC) was 10 µM (≈ 2.05 µg/mL). Further, the result in assay [6] was inactive.

On to `COC(=O)CC1Cc2cc3cc(OC)c(-c4c(OC)cc5cc6c(c(O)c5c4O)C(=O)OC(CC(=O)OC)C6)c(O)c3c(O)c2C(=O)O1` (stereo unspecified) [VIRIDITOXIN], for which the result in assay [1] was Active. Moreover, the outcome in assay [2] and in assay [5] was inactive. Besides, the MIC in assay [3] turned out to be 0.63 µM (≈ 0.417 µg/mL).

Consider `CO/N=C(\C(=O)N[C@@H]1C(=O)N2C(C(=O)O)=C(COC(N)=O)CS[C@H]12)c1ccco1` [CEFUROXIME], for which the outcome in [1] and in assay [6] was inactive. The compound further registered an MIC in assay [3] of 20 µM (≈ 8.49 µg/mL). Besides, the Ratio in [12] stood at 0.306.
